Assays:
Test in all cases: Test C pre/postemergence
Assay type in all cases: in vivo
[1] = tested on: cocklebur (Xanthium strumarium); conditions: for Cocklebur plant response rating: scale 0 to 100 (0 no effect, 100 complete control)
Source text: (§1) Seeds or nutlets of plant species selected from bermudagrass (Cynodon dactylon), Surinam grass (Brachiaria decumbens), cocklebur (Xanthium strumarium), corn (Zea mays), crabgrass (Digitaria sanguinalis), woolly cupgrass (Eriochloa villosa), giant foxtail (Setaria faberii), goosegrass (Eleusine indica), johnsongrass (Sorghum halepense), kochia (Kochia scoparia), lambsquarters (Chenopodium album), morningglory (Ipomoea coccinea), eastern black nightshade (Solanum ptycanthum), yellow nutsedge (Cyperus esculentus), pigweed (Amaranthus retroflexus), common ragweed (Ambrosia elatior), soybean (Glycine max), common (oilseed) sunflower (Helianthus annuus), and velvetleaf (Abutilon theophrasti) were planted and treated preemergence with test chemicals formulated in a non-phytotoxic solvent mixture which included a surfactant.
(§2) At the same time, plants selected from these crop and weed species and also winter barley (Hordeum vulgare), blackgrass (Alopecurus myosuroides), canarygrass (Phalaris minor), chickweed (Stellaria media), downy brome (Bromus tectorum), green foxtail (Setaria viridis), Italian ryegrass (Lolium multiflorum), wheat (Triticum aestivum), wild oat (Avena fatua) and windgrass (Apera spica-venti) were treated with postemergence applications of some of the test chemicals formulated in the same manner. Plants ranged in height from 2 to 18 cm (1- to 4-leaf stage) for postemergence treatments. Plant species in the flooded paddy test consisted of rice (Oryza sativa), umbrella sedge (Cyperus difformis), duck salad (Heteranthera limosa) and barnyardgrass (Echinochloa crus-galli) grown to the 2-leaf stage for testing. Treated plants and controls were maintained in a greenhouse for 12 to 14 days, after which time all species were compared to controls and visually evaluated. Plant response ratings, summarized in Table C, are based on a scale of 0 to 100 where 0 is no effect and 100 is complete control. A dash (-) response means no test result.

[2] = tested on: pigweed (Amaranthus retroflexus); conditions: for Pigweed plant response rating: scale 0 to 100 (0 no effect, 100 complete control)
Source text: as §1, §2

[3] = tested on: johnsongrass (Sorghum halepense); conditions: for Johnsongrass plant response rating: scale 0 to 100 (0 no effect, 100 complete control)
Source text: as §1, §2

kochia (Kochia scoparia) = conditions: for Plant response rating, Kochia: scale 0 to 100; for Kochia plant response rating: scale 0 to 100 (0 no effect, 100 complete control)
Source text: as §1, §2

[4] = tested on: crabgrass (Digitaria sanguinalis); conditions: for Crabgrass plant response rating: scale 0 to 100 (0 no effect, 100 complete control)
Source text: as §1, §2

[5] = Preemergence, 62 g ai/ha, scale 0 to 100, 0 no effect, 100 complete control
[6] = Preemergence, 125 g ai/ha, scale 0 to 100
[7] = Preemergence, 250 g ai/ha, scale 0 to 100
[8] = Preemergence, 500 g ai/ha, scale 0 to 100
[9] = Postemergence, 250 g ai/ha, scale 0 to 100
[10] = Postemergence, 500 g ai/ha, scale 0 to 100

SMILES: CCOC(=O)Cc1nc(C2CC2)nc(N=CN(C)C)c1Br [Compound 33]
- Plant response rating, Cocklebur [1, 5]: 0
- Plant response rating, Cocklebur [1, 6]: 0
- Plant response rating, Cocklebur [1, 7]: 90
- Plant response rating, Cocklebur [1, 8]: 95
- Plant response rating, Pigweed [2, 5]: 85
- Plant response rating, Pigweed [2, 6]: 90
- Plant response rating, Pigweed [2, 7]: 90
- Plant response rating, Pigweed [2, 8]: 90
- Plant response rating, Johnsongrass [3, 5]: 0
- Plant response rating, Johnsongrass [3, 6]: 5
- Plant response rating, Johnsongrass [3, 7]: 10
- Plant response rating, Johnsongrass [3, 8]: 40
- Plant response rating, Kochia (kochia (Kochia scoparia); Preemergence, 250 g ai/ha): 50
- Plant response rating, Kochia (kochia (Kochia scoparia); Preemergence, 500 g ai/ha): 50
- Plant response rating, Crabgrass [4, 5]: 0
- Plant response rating, Crabgrass [4, 6]: 20
- Plant response rating, Crabgrass [4, 7]: 100
- Plant response rating, Crabgrass [4, 8]: 100

SMILES: CCOC(=O)c1nc(-c2ccc(Cl)cc2)nc(N)c1Br [Compound 37]
- Cocklebur plant response rating ([1]; Postemergence, 62 g ai/ha): 0
- Cocklebur plant response rating ([1]; Postemergence, 125 g ai/ha): 95
- Plant response rating, Cocklebur [1, 9]: 95
- Plant response rating, Cocklebur [1, 10]: 95
- Pigweed plant response rating ([2]; Postemergence, 62 g ai/ha): 0
- Pigweed plant response rating ([2]; Postemergence, 125 g ai/ha): 95
- Plant response rating, Pigweed [2, 9]: 100
- Plant response rating, Pigweed [2, 10]: 100
- Johnsongrass plant response rating ([3]; Postemergence, 62 g ai/ha): 0
- Johnsongrass plant response rating ([3]; Postemergence, 125 g ai/ha): 20
- Plant response rating, Johnsongrass [3, 10]: 55
- Kochia plant response rating (kochia (Kochia scoparia); Postemergence, 62 g ai/ha): 0
- Kochia plant response rating (kochia (Kochia scoparia); Postemergence, 125 g ai/ha): 90
- Plant response rating, Kochia (kochia (Kochia scoparia); Postemergence, 250 g ai/ha): 95
- Plant response rating, Kochia (kochia (Kochia scoparia); Postemergence, 500 g ai/ha): 95
- Crabgrass plant response rating ([4]; Postemergence, 62 g ai/ha): 0
- Crabgrass plant response rating ([4]; Postemergence, 125 g ai/ha): 15
- Plant response rating, Crabgrass [4, 9]: 40
- Plant response rating, Crabgrass [4, 10]: 60
